Measurements taken from patent publication US20240382629A1, “HETEROBIVALENT AND HOMOBIVALENT AGENTS TARGETING FIBROBLAST ACTIVATION PROTEIN ALPHA AND/OR PROSTATE-SPECIFIC MEMBRANE ANTIGEN” (The Johns Hopkins University, priority 2021, published 2024).
Values joined by “and” are separate entries in the source; they are usually repeats but may differ in a detail not shown here. Equal values may be shown once.

Assay: Biodistribution of [^18F]JHU1221823 with cold FAPI-04 blocker
Assay type: in vivo, mouse
Conditions: for % ID/g Bladder / % ID/g Blood / % ID/g Brain / % ID/g Fat / % ID/g Femur / % ID/g Heart / % ID/g Kidney / % ID/g Large intestine / % ID/g Liver / % ID/g Lung / % ID/g Muscle / % ID/g Pancreas / % ID/g Salivary gland / % ID/g Small intestine: single mouse
[1] = + Blocker Cold FAPI-04, 60 min, mean

N#C[C@@H]1CCCN1C(=O)CNC(=O)c1ccnc2ccc(OCCCNC(=O)CCOCCOCCOCCOCCNC(=O)[C@H](CCCCNC(=O)c3ccc([18F])nc3)NC(=O)CN3CCN(CC(=O)O)CCN(CC(=O)O)CCN(CC(=O)O)CC3)cc12 [[^18F]JHU1221823]
% ID/g Mean Bladder (30 min, mean): 2.49 % ID/g
% ID/g Bladder (30 min): 1.53 % ID/g and 3.45 % ID/g
% ID/g Mean Bladder (60 min, mean): 5.51 % ID/g
% ID/g Bladder (60 min): 3.64 % ID/g and 7.58 % ID/g
% ID/g Mean Bladder [1]: 2.33 % ID/g
% ID/g Bladder (+ Blocker Cold FAPI-04, 60 min): 2.62 % ID/g and 2.04 % ID/g
% ID/g Mean Blood (30 min, mean): 10.81 % ID/g
% ID/g Blood (30 min): 11.89 % ID/g and 9.72 % ID/g
% ID/g Mean Blood (60 min, mean): 10.03 % ID/g
% ID/g Blood (60 min): 9.50 % ID/g and 10.76 % ID/g
% ID/g Mean Blood [1]: 0.25 % ID/g
% ID/g Blood (+ Blocker Cold FAPI-04, 60 min): 0.22 % ID/g and 0.28 % ID/g
% ID/g Mean Brain (30 min, mean): 0.29 % ID/g
% ID/g Brain (30 min): 0.26 % ID/g and 0.31 % ID/g
% ID/g Mean Brain (60 min, mean): 0.45 % ID/g
% ID/g Brain (60 min): 0.40 % ID/g and 0.50 % ID/g
% ID/g Mean Brain [1]: 0.09 % ID/g
% ID/g Brain (+ Blocker Cold FAPI-04, 60 min): 0.06 % ID/g and 0.11 % ID/g
% ID/g Mean Fat (30 min, mean): 0.42 % ID/g
% ID/g Fat (30 min): 0.41 % ID/g and 0.43 % ID/g
% ID/g Mean Fat (60 min, mean): 0.56 % ID/g
% ID/g Fat (60 min): 0.53 % ID/g and 0.58 % ID/g
% ID/g Mean Fat [1]: 0.21 % ID/g
% ID/g Fat (+ Blocker Cold FAPI-04, 60 min): 0.15 % ID/g and 0.27 % ID/g
% ID/g Mean Femur (30 min, mean): 3.50 % ID/g
% ID/g Femur (30 min): 3.95 % ID/g and 3.45 % ID/g
% ID/g Mean Femur (60 min, mean): 3.54 % ID/g
% ID/g Femur (60 min): 3.21 % ID/g and 3.87 % ID/g
% ID/g Mean Femur [1]: 1.78 % ID/g
% ID/g Femur (+ Blocker Cold FAPI-04, 60 min): 0.98 % ID/g and 2.58 % ID/g
% ID/g Mean Heart (30 min, mean): 5.01 % ID/g
% ID/g Heart (30 min): 5.25 % ID/g and 4.76 % ID/g
% ID/g Mean Heart (60 min, mean): 4.52 % ID/g
% ID/g Heart (60 min): 4.67 % ID/g and 4.58 % ID/g
% ID/g Mean Heart [1]: 0.28 % ID/g
% ID/g Heart (+ Blocker Cold FAPI-04, 60 min): 0.22 % ID/g and 0.33 % ID/g
% ID/g Mean Kidney (30 min, mean): 3.17 % ID/g
% ID/g Kidney (30 min): 3.37 % ID/g and 2.96 % ID/g
% ID/g Mean Kidney (60 min, mean): 2.75 % ID/g
% ID/g Kidney (60 min): 2.76 % ID/g and 2.75 % ID/g
% ID/g Mean Kidney [1]: 1.77 % ID/g
% ID/g Kidney (+ Blocker Cold FAPI-04, 60 min): 1.85 % ID/g and 1.69 % ID/g
% ID/g Mean Large intestine (30 min, mean): 2.14 % ID/g
% ID/g Large intestine (30 min): 1.61 % ID/g and 2.67 % ID/g
% ID/g Mean Large intestine (60 min, mean): 5.58 % ID/g
% ID/g Large intestine (60 min): 1.70 % ID/g and 5.45 % ID/g
% ID/g Mean Large intestine [1]: 0.47 % ID/g
% ID/g Large intestine (+ Blocker Cold FAPI-04, 60 min): 0.41 % ID/g and 0.52 % ID/g
% ID/g Mean Liver (30 min, mean): 2.44 % ID/g
% ID/g Liver (30 min): 2.58 % ID/g and 2.30 % ID/g
% ID/g Mean Liver (60 min, mean): 2.62 % ID/g
% ID/g Liver (60 min): 2.49 % ID/g and 2.75 % ID/g
% ID/g Mean Liver [1]: 0.44 % ID/g
% ID/g Liver (+ Blocker Cold FAPI-04, 60 min): 0.35 % ID/g and 0.51 % ID/g
% ID/g Mean Lung (30 min, mean): 6.38 % ID/g
% ID/g Lung (30 min): 6.92 % ID/g and 5.83 % ID/g
% ID/g Mean Lung (60 min, mean): 6.05 % ID/g
% ID/g Lung (60 min): 5.36 % ID/g and 6.75 % ID/g
% ID/g Mean Lung [1]: 0.72 % ID/g
% ID/g Lung (+ Blocker Cold FAPI-04, 60 min): 0.54 % ID/g and 0.89 % ID/g
% ID/g Mean Muscle (30 min, mean): 1.73 % ID/g
% ID/g Muscle (30 min): 1.74 % ID/g and 1.71 % ID/g
% ID/g Mean Muscle (60 min, mean): 1.75 % ID/g
% ID/g Muscle (60 min): 1.76 % ID/g and 1.75 % ID/g
% ID/g Mean Muscle [1]: 0.48 % ID/g
% ID/g Muscle (+ Blocker Cold FAPI-04, 60 min): 0.25 % ID/g and 0.61 % ID/g
% ID/g Mean Pancreas (30 min, mean): 3.13 % ID/g
% ID/g Pancreas (30 min): 3.58 % ID/g and 2.88 % ID/g
% ID/g Mean Pancreas (60 min, mean): 3.70 % ID/g
% ID/g Pancreas (60 min): 5.44 % ID/g and 3.95 % ID/g
% ID/g Mean Pancreas [1]: 0.37 % ID/g
% ID/g Pancreas (+ Blocker Cold FAPI-04, 60 min): 0.27 % ID/g and 0.46 % ID/g
% ID/g Mean Salivary gland (30 min, mean): 8.51 % ID/g
% ID/g Salivary gland (30 min): 7.35 % ID/g and 9.57 % ID/g
% ID/g Mean Salivary gland (60 min, mean): 8.97 % ID/g
% ID/g Salivary gland (60 min): 9.14 % ID/g and 8.79 % ID/g
% ID/g Mean Salivary gland [1]: 0.42 % ID/g
% ID/g Salivary gland (+ Blocker Cold FAPI-04, 60 min): 0.37 % ID/g and 0.48 % ID/g
% ID/g Mean Small intestine (30 min, mean): 2.78 % ID/g
% ID/g Small intestine (30 min): 3.08 % ID/g and 2.48 % ID/g
% ID/g Mean Small intestine (60 min, mean): 5.18 % ID/g
% ID/g Small intestine (60 min): 8.18 % ID/g and 3.18 % ID/g
% ID/g Mean Small intestine [1]: 0.99 % ID/g
% ID/g Small intestine (+ Blocker Cold FAPI-04, 60 min): 0.91 % ID/g and 1.06 % ID/g
% ID/g Mean Spleen (Spleen, 30 min, mean): 2.08 % ID/g
